Results on twelve compounds are retold here after patent US8987195B2 (priority 2012, dated 2015).

Where two headings read alike, the source gives them in different places.

A word on the EC50: it is the midpoint of the concentration-response curve. Usually IC50 stands for the concentration needed to halve the response being measured.

In one assay the test system is HCV genotype 1b replicon. In words: HCV replicon assay, genotype 1b replicon EC50. The conditions noted are these: read-out: EC50 [gt-1b]. The class given is cell-based, Hepatitis C virus. The method, boiled down: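 Readout was replicon RNA copy number, by 32P-probe protection or TaqMan normalized to cellular cyclophilin A RNA, or luciferase activity for luciferase:Neo^r fusion lines. Cells were exposed to serially diluted compound for 24-48 hours without G418, then washed and lysed. EC50 derived from four-parameter fit relative to DMSO.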
On the technique in general: Replicon systems follow genome replication, usually without infectious particles.

For assay [1], the target named is HCV NS3/4A protease genotype 1b (Hepatitis C virus genotype 1b, UniProt P26663). In words: HCV NS3/4A protease time-resolved fluorescence (TRF) assay, Ki against genotype 1b. Type of assay: biochemical. The method, boiled down:
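Enzyme 0.2 nM 1b / 0.4 nM A156T / 0.025 nM 3a; 30 min preinc. w/ cpd; 25 nM TRF peptide; 2.5 h RT; ex 340/em 615 time-delayed; 4-param IC50 → Ki = IC50/(1+[S]/KM).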

Setting [2] is: Hepatitis C virus, genotype 1b replicon.
[3] abbreviates: IC50 [gt-1b] (nM), NS3/4A genotype 1b, enzyme 0.2 nM.

`Cc1nc2ccccc2c2c1O[C@]1(CC2)C[C@H]2C(=O)N[C@]3(C(=O)NS(=O)(=O)C4(C)CC4)C[C@H]3/C=C\CCCCC[C@H](NC(=O)N(C)C)C(=O)N2C1` [Example 228, (2R,6S,12Z,13aS,14aR,16aS)-6-[(dimethylcarbamoyl)amino]-5′-methyl-N-[(1-methylcyclopropyl)sulfonyl]-5,16-dioxo-1,1′,2′,6,7,8,9,10,11,13a,14,15,16,16a-tetradecahydrospiro[cyclopropa[e]pyrrolo[1,2-a][1,4]diazacyclopentadecine-2,3′-pyrano[2,3-c]quinoline]-14a(5H)-carboxamide]: the EC50 in the assay with HCV genotype 1b replicon (setting [2]) amounted to 6.63 nM. The compound also yielded a half-inhibitory concentration (IC50) in assay [1] (setting [3]) of 0.025 nM.

Regarding `Cc1nc2ccccc2c2c1O[C@]1(CC2)C[C@H]2C(=O)N[C@]3(C(=O)NS(=O)(=O)C4(C)CC4)C[C@H]3/C=C\CCCCC[C@H](NS(C)(=O)=O)C(=O)N2C1` [Example 229, (2R,6S,12Z,13aS,14aR,16aS)-5′-methyl-N-[(1-methylcyclopropyl)sulfonyl]-6-[(methylsulfonyl)amino]-5,16-dioxo-1,1′,2′,6,7,8,9,10,11,13a,14,15,16,16a-tetradecahydrospiro[cyclopropa[e]pyrrolo[1,2-a][1,4]diazacyclopentadecine-2,3′-pyrano[2,3-c]quinoline]-14a(5H)-carboxamide], the EC50 in the assay with HCV genotype 1b replicon (setting [2]) was found to be 14.6 nM. The compound further yielded an IC50 in assay [1] (setting [3]) of 0.122 nM.

Take `Cc1nc2ccc(Cl)cc2c2c1O[C@]1(CC2)C[C@H]2C(=O)N[C@]3(C(=O)NS(=O)(=O)C4(C)CC4)C[C@H]3/C=C\CCCCC[C@H](NC(=O)OCC3CCCC3)C(=O)N2C1` [Example 231, cyclopentylmethyl [(2R,6S,12Z,13aS,14aR,16aS)-9′-chloro-5′-methyl-14a-{[(1-methylcyclopropyl)sulfonyl]carbamoyl}-5,16-dioxo-1,1′,2′,5,6,7,8,9,10,11,13a,14,14a,15,16,16a-hexadecahydrospiro[cyclopropa[e]pyrrolo[1,2-a][1,4]diazacyclopentadecine-2,3′-pyrano[2,3-c]quinolin]-6-yl]carbamate]: the EC50 in the assay on HCV genotype 1b replicon (setting [2]) stood at 4.77 nM. Also, in assay [1] (setting [3]), the IC50 stood at 0.024 nM.

For the compound `CC(C)[C@H](C)OC(=O)N[C@H]1CCCCC/C=C\[C@@H]2C[C@@]2(C(=O)NS(=O)(=O)C2(C)CC2)NC(=O)[C@@H]2C[C@]3(CCc4c(c(C(F)(F)F)nc5ccc(OCCN6CCOCC6)cc45)O3)CN2C1=O` [Example 474, (2S)-3-methylbutan-2-yl [(2R,6S,12Z,13aS,14aR,16aS)-14a-{[(1-methylcyclopropyl)sulfonyl]carbamoyl}-9′-[2-(morpholin-4-yl)ethoxy]-5,16-dioxo-5′-(trifluoromethyl)-1,1′,2′,5,6,7,8,9,10,11,13a,14,14a,15,16,16a-hexadecahydrospiro[cyclopropa[e]pyrrolo[1,2-a][1,4]diazacyclopentadecine-2,3′-pyrano[2,3-c]quinolin]-6-yl]carbamate], the EC50 in the assay with HCV genotype 1b replicon (Hepatitis C virus, HCV replicon, genotype 1b) is 1.73 nM. Moreover, the IC50 in assay [1] (IC50 [gt-1b], NS3/4A protease TRF assay, genotype 1b enzyme 0.2 nM) worked out at 0.033 nM.

Consider `Cc1nc2ccccc2c2c1O[C@@]1(C[C@H]3C(=O)N[C@]4(C(=O)NS(=O)(=O)C5(C)CC5)C[C@H]4/C=C\CCCCC[C@H](NC(=O)OC4CC(F)(F)C4(F)F)C(=O)N3C1)CC2(F)F` (stereo partly drawn) [Example 112, 2,2,3,3-tetrafluorocyclobutyl [(2S,6S,12Z,13aS,14aR,16aS)-1′,1′-difluoro-5′-methyl-14a-{[(1-methylcyclopropyl)sulfonyl]carbamoyl}-5,16-dioxo-1,1′,2′,5,6,7,8,9,10,11,13a,14,14a,15,16,16a-hexadecahydrospiro[cyclopropa[e]pyrrolo[1,2-a][1,4]diazacyclopentadecine-2,3′-pyrano[2,3-c]quinolin]-6-yl]carbamate], for which the EC50 in the assay with HCV genotype 1b replicon (setting [2]) was 32 nM. The compound also had an IC50 in assay [1] (setting [3]) of 0.226 nM.

Regarding `CC(C)COC(=O)N[C@H]1CCCCC/C=C\[C@@H]2C[C@@]2(C(=O)NS(=O)(=O)C2(C)CC2)NC(=O)[C@@H]2C[C@]3(CCc4c(c(C(F)(F)F)nc5ccc(OCCN6CCOCC6)cc45)O3)CN2C1=O` [Example 471, 2-methylpropyl [(2R,6S,12Z,13aS,14aR,16aS)-14a-{[(1-methylcyclopropyl)sulfonyl]carbamoyl}-9′-[2-(morpholin-4-yl)ethoxy]-5,16-dioxo-5′-(trifluoromethyl)-1,1′,2′,5,6,7,8,9,10,11,13a,14,14a,15,16,16a-hexadecahydrospiro[cyclopropa[e]pyrrolo[1,2-a][1,4]diazacyclopentadecine-2,3′-pyrano[2,3-c]quinolin]-6-yl]carbamate], the EC50 in the assay with HCV genotype 1b replicon (Hepatitis C virus, HCV replicon, genotype 1b, HCl salt) came out at 3.06 nM. For the same compound, the IC50 in assay [1] (IC50 [gt-1b], NS3/4A protease TRF assay, genotype 1b enzyme 0.2 nM, HCl salt) is 0.021 nM.

For the compound `COc1cccc(N[C@H]2CCCCC/C=C\[C@@H]3C[C@@]3(C(=O)NS(=O)(=O)C3(C)CC3)NC(=O)[C@@H]3C[C@]4(CCc5c(c(C)nc6ccccc56)O4)CN3C2=O)c1` [Example 341, (2R,6S,12Z,13aS,14aR,16aS)-6-[(3-methoxyphenyl)amino]-5′-methyl-N-[(1-methylcyclopropyl)sulfonyl]-5,16-dioxo-1,1′,2′,6,7,8,9,10,11,13a,14,15,16,16a-tetradecahydrospiro[cyclopropa[e]pyrrolo[1,2-a][1,4]diazacyclopentadecine-2,3′-pyrano[2,3-c]quinoline]-14a(5R)-carboxamide], the EC50 in the assay with HCV genotype 1b replicon (setting [2]) is 1.04 nM. The same compound came in with a half-inhibitory concentration (IC50) in assay [1] (setting [3]) of 0.172 nM.

For `CC1(OC(=O)N[C@H]2CCCCC/C=C\[C@@H]3C[C@@]3(C(=O)NS(=O)(=O)C3(C)CC3)NC(=O)[C@@H]3C[C@]4(CCc5c(c(C6CC6)nc6ccccc56)O4)CN3C2=O)CC1` [Example 102, 1-methylcyclopropyl [(2R,6S,12Z,13aS,14aR,16aS)-5′-cyclopropyl-14a-{[(1-methylcyclopropyl)sulfonyl]carbamoyl}-5,16-dioxo-1,1′,2′,5,6,7,8,9,10,11,13a,14,14a,15,16,16a-hexadecahydrospiro[cyclopropa[e]pyrrolo[1,2-a][1,4]diazacyclopentadecine-2,3′-pyrano[2,3-c]quinolin]-6-yl]carbamate], the half-maximal effective concentration (EC50) in the assay on HCV genotype 1b replicon (setting [2]) is 1.58 nM. Also, in assay [1] (setting [3]), the IC50 is 0.004 nM.

Consider `COc1ccc2nc(C(C)C)c3c(c2c1)[C@H](F)C[C@]1(C[C@H]2C(=O)N[C@]4(C(=O)NS(=O)(=O)C5(C)CC5)C[C@H]4/C=C\CCCCC[C@H](NC(=O)O[C@@H](C)C(C)C)C(=O)N2C1)O3` [Example 419, (2S)-3-methylbutan-2-yl [(1′R,2S,6S,12Z,13aS,14aR,16aS)-1′-fluoro-9′-methoxy-14a-{[(1-methylcyclopropyl)sulfonyl]carbamoyl}-5,16-dioxo-5′-(propan-2-yl)-1,1′,2′,5,6,7,8,9,10,11,13a,14,14a,15,16,16a-hexadecahydrospiro[cyclopropa[e]pyrrolo[1,2-a][1,4]diazacyclopentadecine-2,3′-pyrano[2,3-c]quinolin]-6-yl]carbamate], for which, in the assay with HCV genotype 1b replicon (Hepatitis C virus, HCV replicon, genotype 1b, K+ salt), the EC50 was found to be 1.75 nM. In assay [1] (IC50 [gt-1b], NS3/4A protease TRF assay, genotype 1b enzyme 0.2 nM, K+ salt), the concentration for half-maximal inhibition (IC50) was found to be 0.038 nM.

Regarding `Cc1nc2ccccc2c2c1O[C@]1(CC2)C[C@H]2C(=O)N[C@]3(C(=O)NS(=O)(=O)C4(C)CC4)C[C@H]3/C=C\CCCCC[C@H](NC(=O)NC(C)C)C(=O)N2C1` [Example 282, (2R,6S,12Z,13aS,14aR,16aS)-5′-methyl-N-[(1-methylcyclopropyl)sulfonyl]-5,16-dioxo-6-[(propan-2-ylcarbamoyl)amino]-1,1′,2′,6,7,8,9,10,11,13a,14,15,16,16a-tetradecahydrospiro[cyclopropa[e]pyrrolo[1,2-a][1,4]diazacyclopentadecine-2,3′-pyrano[2,3-c]quinoline]-14a(5H)-carboxamide], in the assay with HCV genotype 1b replicon (Hepatitis C virus, genotype 1b replicon, HCOOH salt), the EC50 is 43.6 nM. The IC50 in assay [1] (IC50 [gt-1b] (nM), NS3/4A genotype 1b, enzyme 0.2 nM, HCOOH salt) was found to be 0.018 nM.

Regarding `Cc1nc2ccccc2c2c1O[C@]1(CC2)C[C@H]2C(=O)N[C@]3(C(=O)NS(=O)(=O)C4(C)CC4)C[C@H]3/C=C\CCCCC[C@H](NC(=O)OC(C)C(F)(F)F)C(=O)N2C1` (stereo partly drawn) [Example 241, 1,1,1-trifluoropropan-2-yl [(2R,6S,12Z,13aS,14aR,16aS)-5′-methyl-14a-{[(1-methylcyclopropyl)sulfonyl]carbamoyl}-5,16-dioxo-1,1′,2′,5,6,7,8,9,10,11,13a,14,14a,15,16,16a-hexadecahydrospiro[cyclopropa[e]pyrrolo[1,2-a][1,4]diazacyclopentadecine-2,3′-pyrano[2,3-c]quinolin]-6-yl]carbamate], in the assay on HCV genotype 1b replicon (genotype 1b replicon), the EC50 stood at 2.9 nM. This compound also had a half-maximal inhibitory concentration (IC50) in assay [1] (setting [3]) of 0.012 nM.

On to `COc1ccc2nc(C(F)(F)F)c3c(c2c1)CC[C@]1(C[C@H]2C(=O)N[C@]4(C(=O)NS(=O)(=O)C5(C)CC5)C[C@H]4/C=C\CCCCC[C@H](NC(=O)OC(C)(C)C(F)(F)F)C(=O)N2C1)O3` [Example 348, 1,1,1-trifluoro-2-methylpropan-2-yl [(2R,6S,12Z,13aS,14aR,16aS)-9′-methoxy-14a-{[(1-methylcyclopropyl)sulfonyl]carbamoyl}-5,16-dioxo-5′-(trifluoromethyl)-1,1′,2′,5,6,7,8,9,10,11,13a,14,14a,15,16,16a-hexadecahydrospiro[cyclopropa[e]pyrrolo[1,2-a][1,4]diazacyclopentadecine-2,3′-pyrano[2,3-c]quinolin]-6-yl]carbamate], for which the EC50 with HCV genotype 1b replicon (Hepatitis C virus, genotype 1b replicon, K+ salt) is 9.23 nM. Moreover, the IC50 in assay [1] (IC50 [gt-1b] (nM), NS3/4A genotype 1b, enzyme 0.2 nM, K+ salt) amounted to 0.046 nM.
